The text below walks through data of patent US6562791B1, “Glucopyranoside, process for isolation thereof, pharmaceutical composition containing same and use thereof” (Council of Scientific and Industrial Research, priority 2002, dated 2003).

For this assay, the system named is 18 hour fasted Wistar rats. In words: hypoglycaemic activity in 18 hour fasted Wistar rats. The assay is classed as in vivo. The following applies: for mean fall (blood glucose): compound at 15 mg/kg p.o., chlorpropamide positive control, dose not given. The procedure: The compound was evaluated for hypoglycaemic activity in 18 hour fasted Wistar rats. […] The mean fall recorded was 24 mg/100 ml blood, from an initial mean of 91 to mean of 67 mg/100 ml blood.

For the compound `CCCNC(=O)NS(=O)(=O)c1ccc(Cl)cc1` [chlorpropamide, reference compound], the “mean fall (blood glucose)” value is on record as 18 mg/100 ml blood.

As to `OC[C@H]1O[C@@H](c2c(O)ccc3cc(Cc4ccc(O)cc4)oc23)[C@H](O)[C@@H](O)[C@@H]1O` [formula 1, 6-hydroxy-2-p-hydroxybenzylbenzofuran-7-C-β-D-glucopyranoside], the “mean fall (blood glucose)” value worked out at 24 mg/100 ml blood. For the setting “15 mg/kg p.o.”, the hypoglycaemic effect entry is “hypoglycaemic effect was recorded in all the treated rats”. For the same compound, the “mean blood level after treatment” value (15 mg/kg p.o., after treatment) came out at 67 mg/100 ml blood. For the same compound, the “initial mean blood level” value (initial value of the treated group) was 91 mg/100 ml blood.
